Measurements: ChEMBL document CHEMBL1777666 (Bioorg Med Chem Lett, 2009)

Assays:
[1] = Inhibition of human recombinant aldose reductase 2 expressed in Escherichia coli BL21 after 10 mins by spectrophotometry analysis
[2] = target: Aldehyde reductase AKR1A1 (Homo sapiens); assay: Inhibition of human recombinant aldehyde reductase after 10 mins by spectrophotometry analysis

IC50 [1] [nM]	IC50 [2] [nM]	SMILES
7	–	O=C(O)Cn1cc(Cc2nc3c(F)c(F)cc(F)c3s2)c2cccnc21
8	> 100000	Cc1ccc2c(Cc3nc4c(F)c(F)cc(F)c4s3)cn(CC(=O)O)c2n1
12	–	CCc1ccc2c(Cc3nc4c(F)c(F)cc(F)c4s3)cn(CC(=O)O)c2n1
5	–	O=C(O)Cn1cc(Cc2nc3c(F)c(F)cc(F)c3s2)c2ccccc21 [LIDORESTAT]
